Laboratory results reported in patent US20250319015A1, “VACCINIUM MACROCARPON EXTRACT AND ANTI-AGEING COSMETIC EFFECTS THEREOF” (SOCIETE INDUSTRIELLE LIMOUSINE D'APPLICATION BIOLOGIQUE, priority 2021, published 2025).
Like-named read-outs stand apart in the source and are kept apart here. Marks after values point to notes of the source that are not given here.

Assays:
older human cells = assay: Gene expression by quantitative PCR, structural elements of the DEJ, older cells; assay type: cell-based; details: 1 μM Retinol
Experimental: This study was carried out on 34 genes involved in the various processes related to the establishment of: • the skin barrier function: proliferation, hydration, cohesion, differentiation, desquamation, innate immunity, anti-oxidant and inflammation system (cf. Table 9: Proliferation, Hydration, Cohesion, Differentiation, Anti-Radical and Inflammation). • the dermal-epidermal junction DEJ; • the dermal matrix; organization and degradation of the fibers, hydration and inflammation (cf. Table 9: Matrix Organization, Matrix Degradation, Hydration, Proteoglycan, Growth and Inflammation Factors). […] The procedure of the study is described below. The young and older human cells are seeded and incubated at 37° C. […] After several days, the cells are recovered and the total RNA extracted. The RNAs were reverse-transcribed and the complementary DNAs obtained were analyzed by the quantitative PCR technique. The mRNAs of internal reference controls were analyzed in parallel with the mRNAs of the markers involved in the barrier function of the epidermis, in the DEJ and in the dermal matrix. The incorporation of fluorescence is measured continuously using a thermal cycler. The RQ (relative quantification) analysis is performed using software.

[1] = tested on: older reconstructed epidermises; assay: Thickness of reconstructed epidermises (hematoxylin eosin stain); assay type: cell-based, human; details: 10 μM Retinol
Experimental: (§1) This study was carried out on normal and older reconstructed epidermises. The epidermal construction was evaluated using a Hematoxylin Eosin (HE) stain and the synthesis of the barrier function markers by immunohistofluorescence. The procedure of the study is described below. […] The epidermides are recovered, fixed, dehydrated, and enclosed in paraffin. Sections (4 μm) are then made using a microtome. The analysis of the thickness of the reconstructed epidermises is carried out by hematoxylin eosin (HE) stain. Viewing is performed using a microscope coupled to an image analysis system. The thickness of the epidermises obtained was measured on the histological sections produced.

loricrin = assay: Loricrin synthesis in reconstructed epidermises (immunohistofluorescence); assay type: cell-based, human; details: older reconstructed epidermises, 10 μM Retinol
Experimental: as §1, with “The analysis of the thickness of the reconstructed epidermises is carried out by hematoxylin eosin (HE) stain.” left out, “produced. The rate of the various synthesized markers is proportional to the intensity of green fluorescence present on the reconstructed epidermises. A quantitative analysis of the images was carried out using an image analysis script. The results are expressed in arbitrary units (AU).” for “produced.”

claudin-1 = assay: Claudin-1 synthesis in reconstructed epidermises (immunohistofluorescence); assay type: cell-based, human; details: older reconstructed epidermises, 10 μM Retinol
Experimental: as §1, with “The analysis of the thickness of the reconstructed epidermises is carried out by hematoxylin eosin (HE) stain.” left out, “produced. The rate of the various synthesized markers is proportional to the intensity of green fluorescence present on the reconstructed epidermises. A quantitative analysis of the images was carried out using an image analysis script. The results are expressed in arbitrary units (AU).” for “produced.”

aquaporin 3 = assay: Aquaporin 3 synthesis in reconstructed epidermises (immunohistofluorescence); assay type: cell-based, human; details: older reconstructed epidermises, 10 μM Retinol
Experimental: as §1, with “The analysis of the thickness of the reconstructed epidermises is carried out by hematoxylin eosin (HE) stain.” left out, “produced. The rate of the various synthesized markers is proportional to the intensity of green fluorescence present on the reconstructed epidermises. A quantitative analysis of the images was carried out using an image analysis script. The results are expressed in arbitrary units (AU).” for “produced.”

collagen I = assay: Collagen I network by immunocytology on older human fibroblasts; assay type: cell-based; details: 0.1 μM Retinol
Experimental: Immunocytological labeling of collagen I is carried out by fixing and permeabilization using primary antibody I and secondary antibody coupled to a fluorophore. A quantitative analysis was carried out by reading the fluorescence of the various conditions tested using a fluorometer. The intensity of the collagen I network is proportional to the intensity of green fluorescence present. The results are expressed in fluorescence value (AU).

MMP-1 = MMP-1 level by ELISA on older human fibroblasts subjected to UVA; assay type: cell-based; details: UVA-irradiated older fibroblasts, 1 μM Retinol
Experimental: The older human fibroblasts are seeded and incubated at 37° C. in an atmosphere containing 5% CO2. The irradiations are carried out using a UV lamp with UVA intensities of 10 J/cm2.
(§2) The cells are then incubated at 37° C. in an atmosphere containing 5% CO2 for 48 hours.

hyaluronic acid = assay: Hyaluronic acid synthesis by ELISA on older human fibroblasts; assay type: cell-based; details: 1 μM Retinol
Experimental: The older human fibroblasts are seeded and incubated at 37° C. in an atmosphere containing 5% CO2.
as §2

[2] = tested on: healthy Caucasian female volunteers; assay: Complexion radiance by visual scoring by experts, Caucasian volunteers; assay type: in vivo, human; details: Retinol 0.075%
Experimental: The complexion radiance is evaluated by experts using the following parameters: radiance, […], olive color and eye fatigue.

[3] = tested on: healthy Caucasian female volunteers; assay: Anti-wrinkle effect by light projection (crow's feet), Caucasian volunteers; assay type: in vivo, human; details: Retinol 0.075%
Experimental: The anti-wrinkle effect is evaluated according to the roughness parameter Sa, evaluated on the crow's feet zone by light projection and on the negative volume, evaluated on the same zone.

[4] = tested on: healthy Caucasian female volunteers; assay: Structure of the dermal-epidermal junction by LC-OCT, Caucasian volunteers; assay type: in vivo, human; details: Retinol 0.075%
Experimental: (§3) This study was carried out on 3 groups of 18 healthy female volunteers, aged 45 to 66 years and presenting with crow's feet wrinkles. Each of the volunteers applied two of the three study formulae to half the face twice-daily in a randomized manner for 42 days.
Acquisitions carried out by LC-OCT after 21 and 42 days of treatment at the cheeks allowed evaluation of the structure of the dermal-epidermal junction

[5] = tested on: healthy Caucasian female volunteers; assay: Quality of the dermal fibers by LC-OCT, Caucasian volunteers; assay type: in vivo, human; details: Retinol 0.075%
Experimental: as §3
Acquisitions carried out by LC-OCT after 21 and 42 days of treatment at the cheeks allowed evaluation of the structure of the quality of the fibers.

[6] = tested on: healthy Caucasian female volunteers; details: for Parameter a* (skin redness), change compared to placebo: Retinol 0.075%
Experimental: (§4) This study was carried out on 3 groups of 18 healthy, female volunteers, aged 45 to 66 years and presenting with crow's feet wrinkles. Each of the volunteers applied two of the three formulae to half the face twice-daily in a randomized manner for 42 days.

[7] = tested on: healthy Caucasian female volunteers; details: retinol 0.075%, 18 volunteers
Experimental: as §4

SMILES: CC1=C(/C=C/C(C)=C/C=C/C(C)=C/CO)C(C)(C)CCC1 [Retinol, retinol]
- COL4A1: Efficacy of retinol/older control (%) (older human cells): −5%
- COL7A1: Efficacy of retinol/older control (%) (older human cells): −21%
- COL17A1: Efficacy of retinol/older control (%) (older human cells): −16%
- LAMA3: Efficacy of retinol/older control (%) (older human cells): −9%
- COL4A1 expression (qPCR) (older human cells; young cells control=100): 38
- COL7A1 expression (qPCR) (older human cells; young cells control=100): 68
- COL17A1 expression (qPCR) (older human cells; young cells control=100): 81
- LAMA3 expression (qPCR) (older human cells; young cells control=100): 94
- Ability to restore the thickness of the epidermis (%) [1]: +94%
- Measurement of the thickness of the epidermis (μm) ([1]; 48 hours): 59 μm
- Ability to restore loricrin synthesis (%) (loricrin): 0%
- Synthesis of loricrin (×10^4 AU) (loricrin; 48 hours): 177 ×10^4 AU
- Ability to restore claudin-1 synthesis (%) (claudin-1): 0%
- Synthesis of claudin-1 (×10^4 AU) (claudin-1; 48 hours): 136 ×10^4 AU
- Ability to restore aquaporin 3 synthesis (%) (aquaporin 3): +100%
- Aquaporin 3 synthesis (×10^4 AU) (aquaporin 3; 48 hours): 355** ×10^4 AU
- Synthesis of the collagen I network (×10^3 AU) (collagen I): 174 ×10^3 AU
- Ability to reduce the MMP-1 level (%) (MMP-1): +33%
- MMP-1 content (ng/mg proteins) (MMP-1; 48 hours): 46 ng/mg proteins
- Synthesis of hyaluronic acid (ng/mg proteins) (hyaluronic acid; Older fibroblasts, 48 hours): 4112 ng/mg proteins
- Content of hyaluronic acid/control (%) (hyaluronic acid; older fibroblasts): +8%
- Eye fatigue, change compared to placebo ([2]; D 21): −2%
- Olive color, change compared to placebo ([2]; D 21): −11%
- Pinkness, change compared to placebo ([2]; D 21): +14%
- Radiance, change compared to placebo ([2]; D 21): +6%
- Eye fatigue, change compared to placebo ([2]; J42): −10%
- Olive color, change compared to placebo ([2]; J42): −10%
- Pinkness, change compared to placebo ([2]; J42): +19%
- Radiance, change compared to placebo ([2]; J42): +11%
- Negative Volume (crow's feet), change compared to placebo ([3]; D 21): −12%
- Parameter Sa (roughness, crow's feet), change compared to placebo ([3]; D 21): −5%
- Negative Volume (crow's feet), change compared to placebo ([3]; D 42): −20%
- Parameter Sa (roughness, crow's feet), change compared to placebo ([3]; D 42): −7%
- Negative Volume (crow's feet), change compared to placebo ([3]; D 42, listed as retinol): −20%
- Sinuosity of the DEJ, change compared to placebo ([4]; D 21): +2%
- Sinuosity of the DEJ, change compared to placebo ([4]; D 21, listed as retinol): +2%
- Sinuosity of the DEJ, change compared to placebo ([4]; D 42): +3%
- Sinuosity of the DEJ, change compared to placebo ([4]; D 42, listed as retinol): +3%
- Fiber Quality, change compared to placebo ([5]; D 21): +3%
- Fiber Quality, change compared to placebo ([5]; D 21, listed as retinol): +3%
- Fiber Quality, change compared to placebo ([5]; D 42): +12%
- Appearance of skin redness, parameter a* (in words) ([6]; 0.075% of retinol, from 21 days of treatment): significantly increases parameter a*
- Parameter a* (skin redness), change compared to placebo ([6]; D 21): +5%
- Parameter a* (skin redness), change compared to placebo ([6]; D 42): +5%
- Incident rate of adverse effects [7]: 17%
- Subjects who demonstrated adverse effects likely caused by the study product ([7]; 42 days): three
